System: yeast genes (level of expressed mRNA)
Assay: DNA chip analysis of expressed mRNA of yeast genes after 2 h culture with a toxic chemical substance
Format: cell-based, Saccharomyces cerevisiae S288C
Details: for The level of expressed mRNA in the presence of chemical substance/ (ratio to absence of chemical substance): stress protein genes, DNA chip
Experimental: Yeast (Saccharomyces cerevtisiae S288C (α SUC2mal mel gap2 CUP1)) were cultured at 25° C. on YPD medium (yeast extract 1%, polypepton 2%, glucose 2%). One of toxic chemical substances was added to the cell at logarithmic growth phase, and the cell was further cultured for two hours. Cell was cultured without any chemical substance in the same condition, and was used as control. Concentrations of the chemical substances were defined to inhibit the growth of the yeast but not lead to death.
After the completion of cultivation, the culture was centrifuged to collect the cells. To the cells, sodium acetate buffer (50 mM sodium acetate, 10 mM EDTA, 1% SDS) was added, and the mixture was shaken at 65° C. for five minutes, followed by returning to room temperature, and obtaining the supernatant, which procedure was repeated two times. To the supernatant, ½ amount of a solution of phenol/chloroform was added, and the mixture was centrifuged to give a supernatant, which was added with an equal amount of chloroform, and the mixture was centrifuged to give a supernatant. To the supernatant, an equal amount of isopropanol containing 0.3 M sodium acetate was added, and the mixture was allowed to stand at room temperature for 30 minutes, after which the mixture was centrifuged to give a sediment of the whole RNAs. Seventy % ethanol was added to the sediment, and the mixture was again centrifuged to give a sediment, which was then dried and dissolved in water. mRNA was isolated from the whole RNAs as followings. In view of the fact that a poly A chain is attached to the 3′ terminus of mRNA, a polynucleotide having a poly T structure which was immobilized on the surface of latex beads was used to trap the mRNA, and then the mRNA was washed and eluted with spine column (Oligotex-dT30<Super>mRNA Purification Kit, Takara). Reverse transcription of the mRNA was conducted with a reverse transcriptase (Super Script II Reverse Transcriptase; catalogue No. 18064-014, GibcoBRL) using fluorescence-labeled nucleotides to give cDNAs that were introduced with Cy3-dUTP or Cy5-dUTP during the reverse transcription.
The labeled cDNAs were dissolved in TE buffer (10 mM Tris-HCl/1 mM EDTA, pH8.0), and the solution was dropped on the DNA chip containing the whole genes of yeast (DNA Chip Research Inc. Japan) so that the cDNAs were hybridized on the DNA chip at 65° C. for over 12 hours. The fluoresces intensity of the DNA chip was read with a scanner, and the ratio relative to the fluorescence intensity resulting from the absence of chemical substance was estimated as the following, which is shown in Tables 1 to 9: [formula]
In the Tables, “Intensity” indicated in the rightmost column is a value of the level of expressed mRNA of each gene in control cells as divided by the average level of the expressions of the whole genes.

C=CC=O [(14), acrolein]
The level of expressed mRNA in the presence of chemical substance/absence: YOR267C (gene YOR267C): 0.9
The level of expressed mRNA in the presence of chemical substance/absence: YOR325W (gene YOR325W): 1.3
level of expressed mRNA in the presence of chemical substance/in its absence (gene YOR336W): 1.1
level of expressed mRNA in the presence of chemical substance/in its absence (gene YOR344C): 0.6
level of expressed mRNA in the presence of chemical substance/in its absence (gene YOR347C): 0.9
The level of expressed mRNA in the presence of chemical substance/absence: YPL005W (gene YPL005W): 1.0
level of expressed mRNA in the presence of chemical substance/in its absence (gene YPL017C): 1.6
The level of expressed mRNA in the presence of chemical substance / the level in the absence of chemical substance, yeast gene YPL107W (gene YPL107W, DNA chip fluorescence ratio to control without chemical, 2 hours culture with chemical, growth-inhibiting non-lethal concentration): 1.7
The level of expressed mRNA in the presence of chemical substance / the level in the absence of chemical substance, yeast gene YPL138C (gene YPL138C, DNA chip fluorescence ratio to control without chemical, 2 hours culture with chemical, growth-inhibiting non-lethal concentration): 1.3
The level of expressed mRNA in the presence of chemical substance/absence: YPL150W (gene YPL150W): 1.0
The level of expressed mRNA in the presence of chemical substance/absence: YPL151C (gene YPL151C): 0.9
The level of expressed mRNA in the presence of chemical substance/absence: YPL152W (gene YPL152W): 1.2
The level of expressed mRNA in the presence of chemical substance/absence: YPL168W (gene YPL168W): 1.0
The level of expressed mRNA in the presence of chemical substance/absence: YPL180W (gene YPL180W): 1.0
The level of expressed mRNA in the presence of chemical substance/absence: YPL188W (gene YPL188W): 1.4
The level of expressed mRNA in the presence of chemical substance/absence: YPL221W (gene YPL221W): 0.8
The level of expressed mRNA in the presence of chemical substance/absence: YPL225W (gene YPL225W): 1.4
The level of expressed mRNA in the presence of chemical substance/absence: YPL249C (gene YPL249C): 1.0
The level of expressed mRNA in the presence of chemical substance/absence: YPL260W (gene YPL260W): 1.1
level of expressed mRNA in the presence of chemical substance/in its absence (gene YPL265W): 1.1
level of expressed mRNA in the presence of chemical substance/in its absence (gene YPR006C): 1.2
level of expressed mRNA in the presence of chemical substance/in its absence (gene YPR026W): 1.5
The level of expressed mRNA in the presence of chemical substance/absence: YPR049C (gene YPR049C): 1.4
The level of expressed mRNA in the presence of chemical substance/absence: YPR061C (gene YPR061C): 1.7
The level of expressed mRNA in the presence of chemical substance/absence: YPR093C (gene YPR093C): 1.1
The level of expressed mRNA in the presence of chemical substance/absence: YPR146C (gene YPR146C): 0.9
The level of expressed mRNA in the presence of chemical substance/absence: YPR148C (gene YPR148C): 1.1
The level of expressed mRNA in the presence of chemical substance/absence: YPR150W (gene YPR150W): 1.4
The level of expressed mRNA in the presence of chemical substance/absence: YPR158W (gene YPR158W): 1.1
The level of expressed mRNA in the presence of chemical substance/absence: YPR169W (gene YPR169W): 1.0
The level of expressed mRNA in the presence of chemical substance/absence: YPR172W (gene YPR172W): 1.6
The level of expressed mRNA in the presence of chemical substance/absence: YPR174C (gene YPR174C): 0.9
The level of expressed mRNA in the presence of chemical substance/The level of expressed mRNA in the absence of chemical substance (yeast gene YAR010C): 1.0
The level of expressed mRNA in the presence of chemical substance/The level of expressed mRNA in the absence of chemical substance (yeast gene YBL005W-A): 1.4
The level of expressed mRNA in the presence of chemical substance/ (ratio to absence), gene YBL038W (yeast gene YBL038W, mitochondria-located protein genes, 2 h culture with chemical): 2.3
The level of expressed mRNA in the presence of chemical substance/The level of expressed mRNA in the absence of chemical substance (yeast gene YBL041W): 2.0
The level of expressed mRNA in the presence of chemical substance/The level of expressed mRNA in the absence of chemical substance (yeast gene YBL043W): 1.9
The level of expressed mRNA in the presence of chemical substance/The level of expressed mRNA in the absence of chemical substance (yeast gene YBL078C): 3.6
The level of expressed mRNA in the presence of chemical substance/ (ratio to absence of chemical substance) (yeast gene YBL093C): 1.0
The level of expressed mRNA in the presence of chemical substance/ (in its absence), gene YBR036C (yeast gene YBR036C, ratio of DNA chip fluorescence intensity to that without chemical substance): 0.8
The level of expressed mRNA in the presence of chemical substance/ (ratio to absence of chemical substance) (yeast gene YBR044C): 0.9
The level of expressed mRNA in the presence of chemical substance/ (ratio to absence), gene YBR122C (yeast gene YBR122C, mitochondria-located protein genes, 2 h culture with chemical): 1.2
The level of expressed mRNA in the presence of chemical substance/The level of expressed mRNA in the absence of chemical substance (yeast gene YBR214W): 0.9
The level of expressed mRNA in the presence of chemical substance/ (ratio to absence), gene YBR251W (yeast gene YBR251W, mitochondria-located protein genes, 2 h culture with chemical): 1.6
The level of expressed mRNA in the presence of chemical substance/ (in its absence), gene YBR298C (yeast gene YBR298C, ratio of DNA chip fluorescence intensity to that without chemical substance): 0.9
The level of expressed mRNA in the presence of chemical substance/The level of expressed mRNA in the absence of chemical substance (yeast gene YCL020W): 1.7
The level of expressed mRNA in the presence of chemical substance/The level of expressed mRNA in the absence of chemical substance (yeast gene YCL027W): 1.2
The level of expressed mRNA in the presence of chemical substance/The level of expressed mRNA in the absence of chemical substance (yeast gene YCR004C): 3.7
The level of expressed mRNA in the presence of chemical substance/ (ratio to absence), gene YCR046C (yeast gene YCR046C, mitochondria-located protein genes, 2 h culture with chemical): 1.3
The level of expressed mRNA in the presence of chemical substance/The level of expressed mRNA in the absence of chemical substance (yeast gene YCR071C): 1.7
The level of expressed mRNA in the presence of chemical substance/ (ratio to absence), gene YCR083W (yeast gene YCR083W, mitochondria-located protein genes, 2 h culture with chemical): 2.4
The level of expressed mRNA in the presence of chemical substance/ (ratio to absence of chemical substance) (yeast gene YCR083W): 2.4
The level of expressed mRNA in the presence of chemical substance/The level of expressed mRNA in the absence of chemical substance (yeast gene YCR088W): 0.9
The level of expressed mRNA in the presence of chemical substance/The level of expressed mRNA in the absence of chemical substance (yeast gene YDL008W): 2.2
The level of expressed mRNA in the presence of chemical substance/ in its absence, gene YDL067C (yeast gene YDL067C, energy system protein genes, 2 h culture with the chemical, ratio to control without chemical): 1.4
The level of expressed mRNA in the presence of chemical substance/ (ratio to absence), gene YDL067C (yeast gene YDL067C, mitochondria-located protein genes, 2 h culture with chemical): 1.4
The level of expressed mRNA in the presence of chemical substance/ in its absence, gene YDL078C (yeast gene YDL078C, energy system protein genes, 2 h culture with the chemical, ratio to control without chemical): 0.8
